This note sets out measurements from patent publication US12521390B2, “Dosage forms for Tyk2 inhibitors” (Bristol-Myers Squibb Company, priority 2019, dated 2026).

The nature of data set [1]: Chemical stability (related substances) of BMS-986165:HPMCAS-H SDDs on storage. The format is physicochemical. As to conditions: API standard, no storage condition. The method, then:
Lots of 25% w/w BMS-986165 SDD with HPMCAS-H were assessed for physical and chemical stability. […] Dissolution performance in the microcentrifuge test was unchanged.
There was no evidence of crystallization by PXRD in any SDD after storage for up to 6 months at 40° C./75% RH open (FIG. 1A and FIG. 1B). DSC data indicated slight changes similar to those observed in 25% w/w BMS-986165 SDD after exposure to 50° C./75% RH or 40° C./75% RH but there was no trend with API loading and the results were considered to reflect an “ageing” or “annealing” effect rather than crystal formation. Scanning electron microscopy (SEM) images confirmed the presence of a single phase homogenous dispersion (FIG. 2A-C, FIG. 3A-C, FIG. 4A-C).

Data set [2] is described as follows: Solubility of BMS-986165 crystalline free base as a function of pH. It is filed as physicochemical. The settings on record: pHs>4.

With `[2H]C([2H])([2H])NC(=O)c1nnc(NC(=O)C2CC2)cc1Nc1cccc(-c2ncn(C)n2)c1OC` [BMS-986165, 6-(cyclopropaneamido)-4-((2-methoxy-3-(1-methyl-1H-1,2,4-triazol-3-yl)phenyl)amino)-N-(methyl-d3)pyridazine-3-carboxamide], in data set [1], the “BMS-986165 (related substances, relative ret. time 1.00)” value is on record as 99.48 and the Total impurities >LOQ amounted to 0.52%.

In the case of `[2H]C([2H])([2H])NC(=O)c1nnc(NC(=O)C2CC2)cc1Nc1cccc(-c2ncn(C)n2)c1OC` [BMS-986165 crystalline free base, 6-(cyclopropaneamido)-4-((2-methoxy-3-(1-methyl-1H-1,2,4-triazol-3-yl)phenyl)amino)-N-(methyl-d3)pyridazine-3-carboxamide], in data set [2], the solubility entry is listed as “low”.
